The data set is described as follows: Drug solubility versus pH. The data set is classed as physicochemical. The note with it: pH above 7.4. From the text:
Media provides sink conditions for maximum release of the drug from pharmaceutical system as well as aids in solubilization of drug for release; therefore, proper selection of media can be important. Media of different pH was used for selection of the correct media for dissolution of the naltrexone implantable tablets. The following five dissolution media were used from pH ranging from 1.2 to 7.4. The pH above 7.4 was not used, as the drug solubility is reduced at pH above 7.4.

Regarding `O=C1CC[C@@]2(O)[C@H]3Cc4ccc(O)c5c4[C@@]2(CCN3CC2CC2)[C@H]1O5` [Naltrexone, 17-(cyclopropylmethyl)-4,5α-epoxy-3,14-dihydroxymorphinan-6-one], the drug solubility result is listed as “reduced”.

(Values after patent US10507184B2, “Implantable Naltrexone tablets” (RUSAN PHARMA LIMITED, priority 2015, dated 2019).)
